Molecular target: T1, Mpr1 (Cryptococcus neoformans, UniProt J9VXZ9)
T1 construct: gene CNAG_04735; recombinant His-tagged Mpr1 secreted from Pichia pastoris expressing CnMPR1-HIS cDNA
Assay: FITC-casein proteolysis assay with purified recombinant Mpr1-His
Assay type: biochemical

T1 sequence (J9VXZ9 entry or part of it): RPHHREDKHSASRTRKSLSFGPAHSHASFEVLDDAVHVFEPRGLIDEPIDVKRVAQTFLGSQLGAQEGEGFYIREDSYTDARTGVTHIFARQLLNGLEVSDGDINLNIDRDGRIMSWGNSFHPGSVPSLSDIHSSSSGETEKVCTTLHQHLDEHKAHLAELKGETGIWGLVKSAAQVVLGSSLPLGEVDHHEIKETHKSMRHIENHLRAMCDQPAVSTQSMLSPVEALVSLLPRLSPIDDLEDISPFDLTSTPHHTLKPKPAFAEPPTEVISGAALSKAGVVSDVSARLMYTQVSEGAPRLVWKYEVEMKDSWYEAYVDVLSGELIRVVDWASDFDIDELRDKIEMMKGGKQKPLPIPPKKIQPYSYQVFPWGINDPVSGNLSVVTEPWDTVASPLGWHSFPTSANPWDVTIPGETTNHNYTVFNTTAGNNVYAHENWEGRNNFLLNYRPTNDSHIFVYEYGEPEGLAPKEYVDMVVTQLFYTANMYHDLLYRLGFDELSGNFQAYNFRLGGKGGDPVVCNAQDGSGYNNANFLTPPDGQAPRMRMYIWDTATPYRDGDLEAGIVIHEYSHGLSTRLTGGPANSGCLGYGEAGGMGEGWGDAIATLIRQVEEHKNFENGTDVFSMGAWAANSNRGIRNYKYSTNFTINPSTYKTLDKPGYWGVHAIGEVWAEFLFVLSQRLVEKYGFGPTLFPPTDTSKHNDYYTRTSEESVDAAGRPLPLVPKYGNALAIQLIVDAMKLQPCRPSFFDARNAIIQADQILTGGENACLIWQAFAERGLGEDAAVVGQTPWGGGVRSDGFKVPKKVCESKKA

SMILES	IC50 [µM]
CC(C)C1=CC2=CC[C@@H]3[C@](C)(CCC[C@@]3(C)C(=O)O)[C@H]2CC1 [NP001-1C11, abietic acid]	5.14
C[C@@H]1CC[C@@]2(OC1)O[C@H]1C[C@H]3[C@@H]4CC=C5C[C@@H](O)CC[C@]5(C)[C@H]4CC[C@]3(C)[C@H]1[C@@H]2C [NP002-1D9, diosgenin]	5.03
OC[C@@H]1CCCN2CCCC[C@H]12 [NP003-2B11, lupinine]	9.66
